Experimental data from PubChem BioAssay (NCI).
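Each compound was tested at five concentrations against cells in 96-well plates for 48 hours. TGI: total growth inhibition.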 Where a SMILES comes first, the peptide text is derived from it. [ ]: non-standard residue; d: D form. pGlu = O=C1CC[CH](C(=O)O)N1; Thz = O=C(O)[CH]1CSCN1

Columns and labels:
Test in all cases: NCI tumour cell line growth inhibition, 48 h
NCI-H226 lung = system: NCI-H226 lung
786-0 renal = system: 786-0 renal
PC-3 prostate = system: PC-3 prostate
SF-539 CNS = system: SF-539 CNS
HCT-116 colon = system: HCT-116 colon
UACC-257 melanoma = system: UACC-257 melanoma
MDA-N = system: MDA-N
NCI-H460 lung = system: NCI-H460 lung
OVCAR-3 ovarian = system: OVCAR-3 ovarian
DU-145 prostate = system: DU-145 prostate
MDA-MB-231 breast = system: MDA-MB-231 breast
CAKI-1 renal = system: CAKI-1 renal
SK-MEL-5 melanoma = system: SK-MEL-5 melanoma

Structure (SMILES) | TGI (NCI-H226 lung) [µM] | TGI (786-0 renal) [µM] | TGI (PC-3 prostate) [µM] | TGI (SF-539 CNS) [µM] | TGI (HCT-116 colon) [µM] | TGI (UACC-257 melanoma) [µM] | TGI (MDA-N) [µM] | TGI (NCI-H460 lung) [µM] | TGI (OVCAR-3 ovarian) [µM] | TGI (DU-145 prostate) [µM] | TGI (MDA-MB-231 breast) [µM] | TGI (CAKI-1 renal) [µM] | TGI (SK-MEL-5 melanoma) [µM]
COc1ccc2[nH]cc(CCNC(=O)[C@H](Cc3ccc(O)cc3)NC(=O)[C@@H](NCC(F)(F)F)C(C)C)c2c1 | > 100 | > 100 | > 100 | > 100 | > 100 | > 100 | > 100 | > 100 | 57.4 | > 100 | > 100 | – | –
O=C1CCC(C(=O)N2CSCC2C(=O)O)N1 (stereo not given) ([pGlu]-[Thz]-OH; configuration not given here) | > 100 | > 100 | > 100 | > 100 | – | > 100 | > 100 | > 100 | > 100 | > 100 | > 100 | > 100 | > 100
COc1ccc(/C=N\N(C)Cc2cccc3ccsc23)cc1 | > 100 | > 100 | > 100 | – | > 100 | > 100 | > 100 | > 100 | > 100 | > 100 | > 100 | > 100 | > 100
CCOP(=O)(OCC)Oc1c(OC)c2[nH]c(C(=O)OC)cc2c2c(C(=O)O)c[nH]c12 | – | > 100 | > 100 | > 100 | > 100 | > 100 | > 100 | > 100 | > 100 | > 100 | > 100 | > 100 | > 100
Cc1nc2c(c(N3CCN(C)CC3)n1)Cc1ccccc1-2 | > 100 | > 100 | > 100 | > 100 | > 100 | > 100 | > 100 | 47.4 | – | > 100 | > 100 | 49.4 | > 100
O=C(Nc1ccccc1)N(CCN(Cc1ccccc1)C(=O)Nc1ccccc1)CCN(Nc1ccccc1)C(=O)Nc1ccccc1 | > 100 | > 100 | > 100 | – | > 100 | > 100 | > 100 | > 100 | > 100 | > 100 | > 100 | > 100 | > 100
COC(=O)C1=C(C)NC(=O)N2[C@@H](CCOCc3ccccc3)CC[C@@H]12 | > 50 | > 50 | > 50 | > 50 | – | > 50 | > 50 | > 50 | > 50 | > 50 | > 50 | > 50 | > 50
O=C(Cc1ccc2ccccc2c1)NCc1ccc(C(=O)NCCc2ccccc2)cc1 | > 100 | > 100 | > 100 | – | > 100 | > 100 | > 100 | > 100 | > 100 | > 100 | > 100 | > 100 | > 100
CCOP(=O)(CC(=O)C1CC1)OCC | > 100 | > 100 | > 100 | > 100 | > 100 | > 100 | > 100 | > 100 | – | > 100 | > 100 | > 100 | > 100
O=[N+]([O-])c1ncc(N(CCO)CCO)s1 | > 100 | > 100 | > 100 | 30.7 | > 100 | 71.4 | > 100 | > 100 | > 100 | > 100 | > 100 | > 100 | –
CC(NC(=O)C1CCC(=O)N1)C(=O)N1CCCC1C(N)=O (stereo not drawn) ([pGlu]-Ala-Pro-NH2; configuration not given here) | > 100 | > 100 | > 100 | – | > 100 | – | > 100 | > 100 | > 100 | > 100 | > 100 | > 100 | > 100
COc1ccc(C2CC(c3c(O)ccc4ccccc34)=NN2)cc1OC (stereo not given) | 14.6 | – | > 100 | 18.4 | – | 20.4 | 22.8 | 8.24 | 20.6 | 36.1 | 53.4 | 58.4 | 12.6
O=P1(c2ccccc2)C(c2ccccc2)CCC1c1ccccc1 (stereo not given) | > 100 | > 100 | > 100 | > 100 | > 100 | > 100 | > 100 | – | > 100 | > 100 | > 100 | 73.9 | > 100
CN(C)Cc1cc(Cl)c(O)c(CN(C)C)c1 | > 100 | > 100 | > 100 | – | > 100 | > 100 | > 100 | > 100 | > 100 | > 100 | > 100 | > 100 | > 100
